Measurements from ChEMBL document CHEMBL5724709, “EUbOPEN Chemogenomics Library - IncuCyte” (2024).
Square brackets hold non-standard residues; d marks the D form. Peptide text beside a SMILES is read from it. * marks the point of attachment. Benzoyl(4-tBu) = CC(C)(C)c1ccc(C(=O)*)cc1; Lys(Et2) = CCN(CC)CCCC[C@H](N)C(=O)O

Key:
Format in all cases: toxicity, cell-based
[1] = system: U2OS; assay: Incucyte cell viability with U2OS; conditions: human, 24 h, 10 µM, compound concentration 10 uM
[2] = system: HEK-293T; assay: Incucyte cell viability with HEK293T; conditions: human, 24 h, 10 µM, compound concentration 10 uM
[3] = system: Fibroblast; assay: Incucyte cell viability with human fibroblast; conditions: 24 h, 10 µM, compound concentration 10 uM
Also: unitless GR value; below 1 slowed growth and below 0 cell loss.

Row | Structure (SMILES) | Growth Rate ([1]; replicate number 1) | Growth Rate ([1]; replicate number 2) | Growth Rate ([2]; replicate number 1) | Growth Rate ([2]; replicate number 2) | Growth Rate ([3]; replicate number 1) | Growth Rate ([3]; replicate number 2)
1 | O=C(c1ccc2[nH]ccc2c1)N1CCN(S(=O)(=O)c2ccc3[nH]c(=O)oc3c2)CC1 | 0.5 | 0.82 | 0.91 | 1 | 0.24 | 1
2 | CCCC(NC(=O)C(CC(C)C)NC(=O)OCc1ccccc1)C(=O)C(=O)NCc1ccccn1 (racemic) | 1 | 0.89 | 0.78 | 1 | 0.96 | 1
3 | COc1cc2c(NC3CCN(C)CC3)nc(N3CCCN(C)CC3)nc2cc1OCCCN(C)C | 0.63 | 1 | 0.78 | 1 | 1 | –
4 | CCNC(=O)c1noc(-c2cc(C(C)C)c(O)cc2O)c1-c1ccc(CN2CCOCC2)cc1 [LUMINESPIB] | -0.21 | 0 | -0.29 | -0.15 | -0.02 | -0.27
5 | COc1nc(N)nc(Nc2cc(S(N)(=O)=O)ccc2N[C@@H](c2cccc3c2OC(F)(F)O3)c2ncccc2Cl)n1 | 1 | 0.89 | 0.97 | 1 | 1 | –
6 | COc1cc2c(NC3CCN(CC4CCCCC4)CC3)nc(N3CCCN(C(C)C)CC3)nc2cc1OCCCN1CCCCC1 | -0.52 | -0.15 | -0.58 | -0.42 | -0.44 | -0.13
7 | Nc1c[nH]c(=O)c2cc(-c3ccccc3)sc12 | -0.48 | 0.33 | 0.88 | 0.73 | -0.61 | -0.86
8 | C=CC(=O)Nc1cccc(-c2c[nH]cc2CN(C)CCN)c1 | 0.21 | 1 | 0.75 | 0.9 | 0.37 | 1
9 | CC(=O)Nc1ccc(-c2cc(-c3ccccc3)nc3cc(C(=O)NCCCn4ccnc4)nn23)cc1 | 1 | 0.62 | 0.47 | 0.63 | 0.41 | 1
10 | CCC[C@@H]1CNCc2c1[nH]c(=O)c(C#N)c2N1CCC2(CC1)CC2.Cl | 0.72 | 0.8 | 0.66 | 0.97 | 0.62 | 0.92
11 | CC(C)[C@H](NC(=O)OCc1ccccc1)C(=O)NC(CC(=O)O)C(=O)CF (stereo partly specified) | 1 | 0.69 | 1 | 0.94 | 0.54 | 1
12 | CNC(=O)c1cnc(N2CCC[C@H](N)C2)nc1Nc1cc(C(C)C)nc(C(C)C)c1 | -0.44 | 0.05 | -0.35 | -0.02 | 0.72 | 0.44
13 | COc1nc(Nc2cc(S(C)(=O)=O)ccc2N[C@@H](c2cccc3c2OC(F)(F)O3)c2ncccc2Cl)nc(N2CCNCC2)n1 | -0.91 | -0.02 | -0.57 | -0.39 | -0.22 | -0.7
14 | CNc1ncc2cc(-c3cc(NC(=O)NCCC(C)(C)C)c(F)cc3C)c(C)nc2n1 [LY-3009120] | -0.28 | 0.07 | 0.3 | 0.63 | -0.76 | -0.55
15 | O=C1/C(=N/Nc2ccc(S(=O)(=O)O)cc2)C(c2ccc([N+](=O)[O-])cc2)=NN1c1ccccc1 | 0.88 | 1 | 0.59 | 1 | 1 | –
16 | Cc1ncsc1-c1ccc(CNC(=O)[C@@H]2C[C@@H](O)CN2C(=O)[C@@H](NC(=O)COCC(C)(COCCOCCOCCNC(=O)C[C@@H]2N=C(c3ccc(Cl)cc3)c3c(sc(C)c3C)-n3c(C)nnc32)COCCOCCOCCNC(=O)C[C@@H]2N=C(c3ccc(Cl)cc3)c3c(sc(C)c3C)-n3c(C)nnc32)C(C)(C)C)cc1 | 0.43 | 0.95 | 1 | – | 1 | –
17 | Cc1ccc(N2C(=O)/C(=C/C=C/c3ccco3)C(=O)NC2=S)cc1Cl | 1 | – | 0.94 | 1 | 0.45 | 1
18 | CC(C)NCC(O)COC(Cn1c2ccccc2c2ccccc21)Cn1c2ccccc2c2ccccc21 (stereo unspecified) | -0.53 | 1 | 1 | – | 1 | 0.03
19 | O=C(NC[C@H](O)CN1CCc2ccccc2C1)c1cc(NC2COC2)ncn1 | 1 | – | 0.54 | 0.94 | 1 | 0.5
20 | N[C@@H](CC(=O)N1CCN(C(c2ccc(F)cc2)c2ccc(F)cc2)CC1)C(=O)N1Cc2ccccc2C1 | 1 | – | 0.66 | 0.87 | 1 | –
21 | O=C(NCCCn1ccnc1)c1cc2nc(-c3ccccc3)cc(-c3ccccc3)n2n1 | 0.13 | 0.75 | 0.48 | 0.98 | 0.96 | 1
22 | CC(C)N(C[C@H]1O[C@@H](n2cnc3c(N)ncnc32)[C@H](O)[C@@H]1O)[C@H]1C[C@@H](CCc2nc3cc(C(C)(C)C)ccc3[nH]2)C1 [PINOMETOSTAT] | 1 | 0.85 | 0.61 | 0.77 | 1 | –
23 | Nc1nc2cc(CC[C@H]3C[C@@H](n4ccc5c(N)ncnc54)[C@H](O)[C@@H]3O)ccc2cc1Br [ONAMETOSTAT] | 0.19 | 1 | -0.14 | -0.01 | 0.43 | 0.06
24 | CC(C)c1cc(C(=O)N2Cc3ccc(CN4CCN(C)CC4)cc3C2)c(O)cc1O [ONALESPIB] | -0.07 | 0.05 | -0.26 | -0.15 | 0.29 | 0.25
25 | Nc1ccccc1NC(=O)c1ccc(CNc2nccc(-c3cccnc3)n2)cc1 [MOCETINOSTAT] | -0.13 | 0.28 | 0.33 | 0.39 | 1 | -0.28
26 | O=C(CCCCCCNC(=O)c1cnc(N(c2ccccc2)c2ccccc2Cl)nc1)NO [CITARINOSTAT] | -0.08 | 0.29 | 0.9 | 1 | 1 | 0.2
27 | CC(=O)Nc1ccc(OC[C@](C)(O)C(=O)Nc2ccc([N+](=O)[O-])c(C(F)(F)F)c2)cc1 | 1 | 0.76 | 0.72 | 0.87 | 0.07 | 1
28 | CCN(CC)CCCC[C@H](NC(=O)[C@H](CC(C)C)NC(=O)[C@H](C)NC(=O)[C@H](Cc1ccccc1)NC(=O)c1ccc(C(C)(C)C)cc1)C(=O)N[C@@H](CO)C(=O)OC ({Benzoyl(4-tBu)}-FAL[Lys(Et2)]S-OMe) | 1 | – | 0.81 | 0.89 | 0.92 | 0.71
